Laboratory results taken from ChEMBL document CHEMBL1128431, “Specific sequestering agents for the actinides. 28. Synthesis and initial evaluation of multidentate 4-carbamoyl-3-hydroxyl-1-methyl-2(1H)-pyridinone ligands for in vivo plutonium(IV) chelation” (1995).

Assays:
[1] = test system: Mus musculus; experiment: % Pu(IV) retained after 24 hr in whole body of mice under the effect of 30uM/kg(po, gastric intubation) of ligand administered 3 min after iv injection of Pu(IV) citrate; format: functional
[2] = test system: Mus musculus; experiment: %Pu(IV) excreted after 24 hr in GI contents and feces under the effect of 30uM/kg(po, gastric intubation) of ligand administered 3 min after iv injection of Pu(IV) citrate; format: functional
[3] = test system: Mus musculus; experiment: Percent of Pu(IV) excreted after 24 hours in GI contents and feces under the effect of 30 umol/kg (i.p.) of ligand administered 1 hr after iv injection of Pu(IV) citrate; format: functional
[4] = test system: Mus musculus; experiment: Percent of Pu(IV) excreted after 24 hours in urine under the effect of 30 umol/kg (i.p.) of ligand administered 1 hr after iv injection of Pu(IV) citrate; format: functional
[5] = test system: Mus musculus; experiment: Percent of Pu(IV) retained after 24 hours in kidneys of mice under the effect of 30 umol/kg (i.p.) of ligand administered 1 hr after iv injection of Pu(IV) citrate; format: functional, Kidney
[6] = test system: Mus musculus; experiment: Percent of Pu(IV) retained after 24 hours in liver of mice under the effect of 30 umol/kg (i.p.) of ligand administered 1 hr after iv injection of Pu(IV) citrate; format: functional
[7] = test system: Mus musculus; experiment: Percent of Pu(IV) retained after 24 hours in skeleton of mice under the effect of 30 umol/kg (i.p.) of ligand administered 1 hr after iv injection of Pu(IV) citrate; format: functional
[8] = test system: Mus musculus; experiment: Percent of Pu(IV) retained after 24 hours in soft tissue of mice under the effect of 30 umol/kg (i.p.) of ligand administered 1 hr after iv injection of Pu(IV) citrate; format: functional
[9] = test system: Mus musculus; experiment: Percent of Pu(IV) retained after 24 hours in whole body of mice under the effect of 30 umol/kg (i.p.) of ligand administered 1 hr after iv injection of Pu(IV) citrate; format: functional
[10] = test system: Mus musculus; experiment: % Pu(IV) retained after 24 hours in liver of mice under the effect of 30uM/kg(po, gastric intubation) of ligand administered 3 min after iv injection of Pu(IV) citrate; format: functional
[11] = test system: Mus musculus; experiment: % Pu(IV) excreted at 0-4 hr in urine under the effect of 30uM/kg(po, gastric intubation) of ligand administered 3 min after iv injection of Pu(IV) citrate; format: functional
[12] = test system: Mus musculus; experiment: % Pu(IV) retained after 24 hours in kidneys of mice under the effect of 30uM/kg(po, gastric intubation) of ligand administered 3 min after iv injection of Pu(IV) citrate; format: functional, Kidney
[13] = test system: Mus musculus; experiment: % Pu(IV) retained after 24 hours in skeleton of mice under the effect of 30uM/kg(po, gastric intubation) of ligand administered 3 min after iv injection of Pu(IV) citrate; format: functional
[14] = test system: Mus musculus; experiment: % Pu(IV) retained after 24 hours in soft tissue of mice under the effect of 30uM/kg(po, gastric intubation) of ligand administered 3 min after iv injection of Pu(IV) citrate; format: functional
[15] = test system: Mus musculus; experiment: % Pu(IV) excreted at 4-24 hr in urine under the effect of 30uM/kg(po, gastric intubation) of ligand administered 3 min after iv injection of Pu(IV) citrate

SMILES | ID [1] | ID [2] | ID [3] | ID [4] | ID [5] | ID [6] | ID [7] | ID [8] | ID [9] | ID [10] | ID [11] | ID [12] | ID [13] | ID [14] | ID [15]
O=C(NCCCN(CCCCN(CCCNC(=O)c1cccc(=O)n1O)C(=O)c1cccc(=O)n1O)C(=O)c1cccc(=O)n1O)c1cccc(=O)n1O | 24% | 51% | 57% | 25% | 0.2% | 8.9% | 7.5% | 1.6% | 18% | 11% | 23% | 0.1% | 12% | 13% | 2.7%
Cn1ccc(C(=O)NCCN(CCCCN(CCNC(=O)c2ccn(C)c(=O)c2O)CCNC(=O)c2ccn(C)c(=O)c2O)CCNC(=O)c2ccn(C)c(=O)c2O)c(O)c1=O | 32% | 8.6% | 25% | 47% | 1.8% | 14% | 11% | 2.1% | 29% | 17% | 20% | 1.3% | 13% | 1.8% | 39%
Cn1ccc(C(=O)NCCCCCNC(=O)c2ccn(C)c(=O)c2O)c(O)c1=O | 54% | 22% | 67% | 18% | 0.3% | 3.1% | 10% | 1.9% | 16% | 25% | 10% | 0.8% | 24% | 3.2% | 13%
Cn1ccc(C(=O)NCCCN(CCCNC(=O)c2ccn(C)c(=O)c2O)CCCNC(=O)c2ccn(C)c(=O)c2O)c(O)c1=O | 60% | 36% | 12% | 55% | 0.7% | 17% | 14% | 2% | 33% | 28% | 1.8% | 0.7% | 28% | 4.3% | 3.6%
Cn1ccc(C(=O)NCc2cc(CNC(=O)c3ccn(C)c(=O)c3O)cc(CNC(=O)c3ccn(C)c(=O)c3O)c2)c(O)c1=O | 82% | 5.2% | 70% | 8% | 0.9% | 6.1% | 12% | 3% | 22% | 40% | 6.4% | 1.2% | 34% | 7.5% | 6%
Cn1ccc(C(=O)NCCN(CCCN(CCNC(=O)c2ccn(C)c(=O)c2O)CCNC(=O)c2ccn(C)c(=O)c2O)CCNC(=O)c2ccn(C)c(=O)c2O)c(O)c1=O | 30% | 22% | 41% | 34% | 1.6% | 10% | 9.9% | 2.7% | 24% | 13% | 16% | 1.2% | 13% | 3.1% | 33%
Cn1ccc(C(=O)NCCCNC(=O)c2ccn(C)c(=O)c2O)c(O)c1=O | 66% | 7.9% | 41% | 32% | 0.5% | 9.5% | 14% | 2.6% | 27% | 33% | 16% | 0.8% | 27% | 5% | 11%
Cn1ccc(C(=O)NCCN(CCNC(=O)c2ccn(C)c(=O)c2O)CCN(CCNC(=O)c2ccn(C)c(=O)c2O)CCNC(=O)c2ccn(C)c(=O)c2O)c(O)c1=O | 23% | 38% | 45% | 36% | 1.3% | 3.8% | 11% | 2.8% | 19% | 7.6% | 12% | 0.4% | 11% | 4% | 27%
Cn1ccc(C(=O)NCCCCCCNC(=O)c2ccn(C)c(=O)c2O)c(O)c1=O | 76% | 9.8% | 63% | 14% | 0.5% | 6.5% | 12% | 3.7% | 23% | 44% | 7.3% | 0.6% | 25% | 6.2% | 6.9%
O=C(NCc1cc(CNC(=O)c2cccc(=O)n2O)cc(CNC(=O)c2cccc(=O)n2O)c1)c1cccc(=O)n1O |  |  | 43% | 9.6% | 1.8% | 18% | 17% | 10% | 47% |  |  |  |  |  | 
Cn1ccc(C(=O)NCCN(CCNC(=O)c2ccn(C)c(=O)c2O)CCNC(=O)c2ccn(C)c(=O)c2O)c(O)c1=O | 25% | 34% | 45% | 35% | 0.7% | 5.5% | 11% | 2.7% | 20% | 8.5% | 21% | 0.7% | 13% | 1.9% | 21%
CC(=O)N(O)CCCCCNC(=O)CCC(=O)N(O)CCCCCNC(=O)CCC(=O)N(O)CCCCCNC(=O)c1ccn(C)c(=O)c1O | 60% | 17% | 26% | 21% | 3% | 13% | 17% | 19% | 53% | 22% | 2.4% | 2.4% | 20% | 15% | 20%
Cn1ccc(C(=O)NCCCCNC(=O)c2ccn(C)c(=O)c2O)c(O)c1=O | 55% | 11% | 63% | 19% | 0.4% | 3.7% | 11% | 1.9% | 17% | 34% | 26% | 0.5% | 17% | 3.2% | 8.8%
Cn1ccc(C(=O)NCCOCCNC(=O)c2ccn(C)c(=O)c2O)c(O)c1=O | 34% | 46% | 56% | 28% | 0.3% | 2.7% | 11% | 1.7% | 16% | 11% | 14% | 0.8% | 18% | 2.9% | 7.8%
